Laboratory results published in patent US6797462B1, “Cell-based assay for immunodeficiency virus infectivity and sensitivity” (UAB Research Foundation, priority 1998, dated 2004).

System: HIV YU2
Assay: Protease inhibitor sensitivity: J53tat cells infected with HIV YU2 with drug, supernatant used to infect J53BL cells
Format: cell-based, HIV-1
Details: for Number of colony formed in the presence of protease Inhibitor Indinavir: YU2, J53tat then J53BL
Procedure: The J53tat cell line is used to produce virus and thereby enable viral testing of drug candidates that affect various stages of the virus life cycle. Thus, viral drug resistance mutations in early stage targets such as reverse transcriptase (RT), integrase (IN) and env; and late stage targets such as protease and Gag are analyzed by the methods of the present invention. The J53tat cells are infected with HIV YU2 (MOI of either 0.2 or 0.04), and protease inhibitor (indinavir) is added to the cultures at various concentrations. Forty hours after infection the culture supernatant is collected and used to infect the J53BL cell line in the presence of the same drug concentrations.

CC(C)(C)NC(=O)[C@@H]1CN(Cc2cccnc2)CCN1C[C@@H](O)C[C@@H](Cc1ccccc1)C(=O)N[C@H]1c2ccccc2C[C@H]1O [indinavir]
Number of colony formed in the presence of protease Inhibitor Indinavir (0.04 M.O.I, 0.008 MM indinavir): 105
Number of colony formed in the presence of protease Inhibitor Indinavir (0.04 M.O.I, 0.2 MM indinavir): 2
Number of colony formed in the presence of protease Inhibitor Indinavir (0.04 M.O.I, 1.0 MM indinavir): 0
Number of colony formed in the presence of protease Inhibitor Indinavir (0.04 M.O.I): 2
Number of colony formed in the presence of protease Inhibitor Indinavir (0.2 M.O.I, 0.008 MM indinavir): >1000
Number of colony formed in the presence of protease Inhibitor Indinavir (0.2 M.O.I, 0.2 MM indinavir): 99
Number of colony formed in the presence of protease Inhibitor Indinavir (0.2 M.O.I, 1.0 MM indinavir): 0
Number of colony formed in the presence of protease Inhibitor Indinavir (0.2 M.O.I): 343
Sensitivity of YU2 to protease inhibitor (increasing concentrations causing greater inhibition): sensitive
